Reference: article PMC4678037 (Neuropharmacology, 2015)
Read-outs that look alike come from different tables or passages of the source. Marks after values point to notes of the source that are not given here. Values belong to the compound of their own block, whether it stands above or below them.

Assays:
[1] = molecular target: hCB1R (Homo sapiens, UniProt P21554); type: biochemical
[2] = molecular target: mCB1R (Mus musculus, UniProt P47746); type: biochemical
[3] = tested on: body weight; assay: Body weight loss in mice on ad lib. 'cafeteria' diet, 3 wks repeated p.o.; type: in vivo, mouse; conditions: approximate, vehicle-corrected, AZ data on file
[4] = tested on: CB1R; assay: Change in [11C]SD5024 binding in pons after CB1R antagonists; type: in vivo, cynomolgus monkeys (Macaca fascicularis)
[5] = tested on: body weight; assay: 10-day Phase I Multiple Ascending Dose; type: in vivo, human; conditions: 10-day Phase I MAD; doses giving plasma concentrations comparable to ~20–30% brain CB1R occupancy; AZ data on file
[6] = tested on: CB1R; assay: PET CB1R occupancy with [11C]SD5024 in striatum
[7] = tested on: body weight / suicidality; conditions: ref FDA, 2007, cited from earlier work
[8] = cited from earlier work
[9] = tested on: CB1R; conditions: across species, ref Fong et al., 2007, Burns et al., Addy et al., 2008a, Proietto et al., 2010, Aronne et al., Hadcock et al.; cited from earlier work
[10] = Whole brain uptake of radioligand; type: in vivo, cynomolgus monkeys (Macaca fascicularis); conditions: i.v. bolus of radioligand, 42 PET measurements
[11] = tested on: CB1R; conditions: binding to CB1R; ref Donohue et al., 2008a,b; cited from earlier work

Sequence of hCB1R (P21554 whole entry): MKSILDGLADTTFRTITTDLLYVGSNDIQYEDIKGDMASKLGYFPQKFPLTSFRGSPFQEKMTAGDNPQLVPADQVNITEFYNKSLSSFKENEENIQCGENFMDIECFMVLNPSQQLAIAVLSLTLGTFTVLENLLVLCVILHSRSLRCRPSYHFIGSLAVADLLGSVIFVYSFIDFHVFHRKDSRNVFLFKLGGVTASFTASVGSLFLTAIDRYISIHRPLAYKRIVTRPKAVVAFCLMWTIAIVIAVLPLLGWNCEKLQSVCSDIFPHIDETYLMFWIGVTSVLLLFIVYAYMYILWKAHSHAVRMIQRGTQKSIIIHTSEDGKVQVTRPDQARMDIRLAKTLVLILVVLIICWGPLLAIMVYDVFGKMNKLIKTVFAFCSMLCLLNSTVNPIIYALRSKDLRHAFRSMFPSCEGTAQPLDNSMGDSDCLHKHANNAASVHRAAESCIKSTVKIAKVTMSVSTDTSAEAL
Sequence of mCB1R (P47746 whole entry): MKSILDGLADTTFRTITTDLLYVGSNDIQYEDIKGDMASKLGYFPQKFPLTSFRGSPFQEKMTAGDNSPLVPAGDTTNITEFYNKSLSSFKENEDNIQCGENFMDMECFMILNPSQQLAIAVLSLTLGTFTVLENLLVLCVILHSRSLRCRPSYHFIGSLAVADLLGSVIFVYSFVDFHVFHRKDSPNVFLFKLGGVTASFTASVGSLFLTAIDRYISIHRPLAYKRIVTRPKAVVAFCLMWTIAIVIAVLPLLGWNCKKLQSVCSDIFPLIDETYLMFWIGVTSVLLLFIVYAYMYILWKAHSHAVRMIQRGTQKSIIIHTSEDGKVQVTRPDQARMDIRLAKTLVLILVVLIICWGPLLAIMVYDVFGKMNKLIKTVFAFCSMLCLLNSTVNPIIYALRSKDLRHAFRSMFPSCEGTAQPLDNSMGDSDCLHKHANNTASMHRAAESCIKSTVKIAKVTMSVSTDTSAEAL

- Ki [1]: 0.2 ± 0.01 nM
- Ki [2]: 0.02 ± 0.001 nM
SMILES: Cc1c2c(n(-c3ccc(Cl)cc3Cl)c1-c1ccc(OS(=O)(=O)CCC(F)(F)F)cc1)CCN(N1CCCCC1)C2=O [AZ compound 2, 4-[1-(2,4-Dichlorophenyl)-3-methyl-4-oxo-5-piperidin-1-yl-4,5,6,7-tetrahydro-1H-pyrrolo[3,2-c]pyridin-2-yl]phenyl 3,3,3-trifluoropropane-1-sulfonate]
- Maximal in vivo body weight loss (% of baseline) [3]: ~30% of baseline
- AUC50–122min difference compared to baseline ([4]; 2.0 mg/kg (highest dose)): −23%
- Receptor Occupancy ([6]; striatum, 0.06 mg/kg i.v., monkey 2, plasma 0.023 μmol/L, 50–122 min): 0.6%
- Receptor Occupancy ([6]; striatum, 0.2 mg/kg i.v., monkey 1, plasma 0.050 μmol/L, 50–122 min): −10%
- Receptor Occupancy ([6]; striatum, 0.2 mg/kg i.v., monkey 4, plasma 0.057 μmol/L, 50–122 min): 9.2%
- Receptor Occupancy ([6]; striatum, 0.25 mg/kg i.v., monkey 5, plasma 0.083 μmol/L, 50–122 min): 1.4%
- Receptor Occupancy ([6]; striatum, 0.3 mg/kg i.v., monkey 2, plasma 0.143 μmol/L, 50–122 min): 35%
- Receptor Occupancy ([6]; striatum, 0.6 mg/kg i.v., monkey 5, plasma 0.252 μmol/L, 50–122 min): 64%
- Receptor Occupancy ([6]; striatum, 1.0 mg/kg i.v., monkey 4, plasma 0.401 μmol/L, 50–122 min): 69%
- Receptor Occupancy ([6]; striatum, 2.0 mg/kg i.v., monkey 1, plasma […], 50–122 min): 78%

- Ki [1]: 0.24 ± 0.01 nM
- Ki [2]: 0.03 ± 0.002 nM
SMILES: Cc1c2c(n(-c3ccc(F)cc3Cl)c1-c1ccc(OS(=O)(=O)CCC(F)(F)F)cc1)CCN(N1CCCCC1)C2=O [AZ compound 3, 4-[1-(2-Chloro-4-fluorophenyl)-3-methyl-4-oxo-5-piperidin-1-yl-4,5,6,7-tetrahydro-1H-pyrrolo[3,2-c]pyridin-2-yl]phenyl 3,3,3-trifluoropropane-1-sulfonate]
- Maximal in vivo body weight loss (% of baseline) [3]: ~30% of baseline
- AUC50–122min difference compared to baseline ([4]; 0.6 mg/kg (highest dose)): −23%
- Receptor Occupancy ([6]; striatum, 0.02 mg/kg i.v., monkey 4, plasma 0.001 μmol/L, 50–122 min): −18%
- Receptor Occupancy ([6]; striatum, 0.06 mg/kg i.v., monkey 3, plasma […], 50–122 min): 0.7%
- Receptor Occupancy ([6]; striatum, 0.06 mg/kg i.v., monkey 4, plasma 0.020 μmol/L, 50–122 min): −12%
- Receptor Occupancy ([6]; striatum, 0.2 mg/kg i.v., monkey 4, plasma 0.084 μmol/L, 50–122 min): 14%
- Receptor Occupancy ([6]; striatum, 0.4 mg/kg i.v., monkey 3, plasma 0.245 μmol/L, 50–122 min): 59%
- Receptor Occupancy ([6]; striatum, 0.6 mg/kg i.v., monkey 4, plasma 0.275 μmol/L, 50–122 min): 82%

- Ki [2]: 0.01 ± 0.001 nM
SMILES: C[C@H](NC(=O)C(C)(C)Oc1ccc(C(F)(F)F)cn1)[C@@H](Cc1ccc(Cl)cc1)c1cccc(C#N)c1 [Taranabant, N-[(2S,3S)-4-(4-Chlorophenyl)-3-(3-cyanophenyl)-2-butanyl]-2-methyl-2-{[5-(trifluoromethyl)-2-pyridinyl]oxy}propanamide, reference compound]
- Maximal in vivo body weight loss (% of baseline) [3]: ~30% of baseline
- AUC50–122min difference compared to baseline ([4]; 0.2 mg/kg (highest dose)): −29%
- CB1R occupancy that may be sufficient for appetite- and body weight-reducing efficacy [9]: 10 to 40%
- Protein bound ([8]; ref Li et al., 2010): > 98%
- CB1R occupancy at exposures corresponding to those needed for optimal clinical efficacy ([6]; non-human primates, typically around): 20–30%
- Receptor Occupancy ([6]; striatum, 0.005 mg/kg i.v., monkey 7, plasma 0.002 μmol/L, 50–122 min): 1.7%
- Receptor Occupancy ([6]; striatum, 0.015 mg/kg i.v., monkey 7, plasma 0.010 μmol/L, 50–122 min): −3.9%
- Receptor Occupancy ([6]; striatum, 0.05 mg/kg i.v., monkey 1, plasma 0.015 μmol/L, 50–122 min): 35%
- Receptor Occupancy ([6]; striatum, 0.2 mg/kg i.v., monkey 1, plasma 0.093 μmol/L, 50–122 min): 94%
- Plasma concentration corresponding to 20–30% CB1R occupancy ([6]; striatum, present study): 0.01 to 0.02 µmol/L

The next lines start with the compound.

SMILES: Cc1c(C(=O)NN2CCCCC2)nc(-c2ccc(Cl)cc2Cl)n1-c1ccc(OS(=O)(=O)CCC(F)(F)F)cc1 [AZ compound 1, 4-[2-(2,4-Dichlorophenyl)-5-methyl-4-(piperidin-1-ylcarbamoyl)-1H-imidazol-1-yl]phenyl 3,3,3-trifluoropropane-1-sulfonate]
- Ki [1]: 0.19 ± 0.01 nM
- Ki [2]: 0.03 ± 0.002 nM
- Maximal in vivo body weight loss (% of baseline) [3]: ~23–25% of baseline
- AUC50–122min difference compared to baseline ([4]; 6.0 mg/kg (highest dose)): −20%
- Effect on body weight [5]: tended to reduce body weight
- Receptor Occupancy ([6]; striatum, 0.03 mg/kg i.v., monkey 1, plasma 0 μmol/L, data for 50–93 min): 0.4 ^* %
- Receptor Occupancy ([6]; striatum, 0.3 mg/kg i.v., monkey 1, plasma 0.038 μmol/L, 50–122 min): 35%
- Receptor Occupancy ([6]; striatum, 0.3 mg/kg i.v., monkey 2, plasma 0.055 μmol/L, data for 50–93 min): 23 ^* %
- Receptor Occupancy ([6]; striatum, 1.0 mg/kg i.v., monkey 2, plasma 0.154 μmol/L, 50–122 min): 73%
- Receptor Occupancy ([6]; striatum, 2.0 mg/kg i.v., monkey 3, plasma 0.999 μmol/L, 50–122 min): 88%
- Receptor Occupancy ([6]; striatum, 6.0 mg/kg i.v., monkey 3, plasma 2.220 μmol/L, 50–122 min): 99%

SMILES: Cc1c(C(=O)NN2CCCCC2)nn(-c2ccc(Cl)cc2Cl)c1-c1ccc(Cl)cc1 [Rimonabant, 5-(4-Chlorophenyl)-1-(2,4-dichloro-phenyl)-4-methyl-N-(piperidin-1-yl)-1H-pyrazole-3-carboxamide]
- Maximal in vivo body weight loss (% of baseline) [3]: ~20% of baseline
- Suicidality in the clinic ([7]; 5 mg dose vs. selected 20 mg dose): absence of a detectable rise in suicidality
- Weight loss in the clinic ([7]; 5 mg dose): significant (albeit modest) weight loss
- Protein bound ([8]; ref FDA, 2007): > 99.9%

SMILES: N#Cc1ccc(S(=O)(=O)N=C(N)N2CC(c3ccccc3)C(c3ccc(Cl)cc3)=N2)cc1 (stereo not drawn) [[^11C]SD5024]
- Peak radioactivity in brain (range) [10]: 2.6 to 4.2 % ID
- IC50 [11]: 2.8 nM
- Ki [11]: 0.5 nM
